Tested on: Zucker Diabetic Fatty rats
Assay: Inhibition of gluconeogenesis in Zucker Diabetic Fatty rats (14C-bicarbonate incorporation into glucose)
Type: in vivo, rat
Conditions: 50 mg/kg bolus via jugular catheter
Description: Nine Zucker Diabetic Fatty rats (16-weeks old, Genetics Models Inc., Indianapolis, Ind.) were fasted at midnight and instrumented with jugular catheters the following morning. […] After 50minutes a bolus of^14 C-sodium bicarbonate ([…]) was administered via the same route. 20 minutes later, the animals were quickly anesthetized with intravenous pentobarbitol and a blood sample (1.5 mL) was taken by cardiac puncture. Blood (0.5 mL) was diluted into 6 mL deionized water and protein precipitated by addition of 1 mL zinc sulfate (0.3 N) and 1 mL barium hydroxide (0.3 N). The mixture was centrifuged (20 minutes, 1000×g) and 5 mL of the resulting supernatant was then combined with 1 g of a mixed bed ion exchange resin (1 part AG 50W-X8, 100-200 mesh, hydrogen form and 2 parts of AG 1-X8, 100-200 mesh, acetate form) to separate ^14C-bicarbonate from ^14C-glucose. The slurry was shaken at room temperature for four hours and then allowed to settle. An aliquot of the supernatant (0.5 mL) was then counted in 5 mL scintillation cocktail.

CCc1cc(F)c(N)c2nc(-c3ccc(P(=O)(O)O)o3)n(CC(C)C)c12 [Compound 12.64]
reduction of incorporation of 14C-bicarbonate into 14C-glucose: approximately 50%
14C-Glucose Produced (cpm/mL blood) (14C-bicarbonate after 50 minutes, blood 20 minutes later): 32,827 ± 6130 cpm/mL blood
% Glucose Produced (saline = 100): 49.2%

From patent US6399782B1, “Benzimidazole inhibitors of fructose 1,6-bisphosphatase” (Metabasis Therapeutics, Inc., priority 1997, dated 2002)
